ChEMBL document CHEMBL5046231, “Modulation of Naturally Occurring Linear Dipeptide Chirality to Reduce the Affinity for Oligopeptide Transporter 1 and Increase Intestinal Stability for an Enhanced Colon-Targeting Effect in the Treatment of Inflammatory Bowel Disease: An Application of trans-4-l-Hydroxyprolyl-l-serine” (J Med Chem, 2022)
Active and inactive are the calls of the source. The calls are words filed in the database; no cut-off is given here.

Assays:
[1] = Chemical stability in 0.1 M HCl at pH 1.2 assessed as half life measured up to 12 hrs by HPLC analysis; type: physicochemical
[2] = Chemical stability in acetate buffer at pH 4.5 assessed as half life measured up to 12 hrs by HPLC analysis; type: physicochemical
[3] = Chemical stability in phosphate buffer at pH 6.8 assessed as half life measured up to 12 hrs by HPLC analysis; type: physicochemical
[4] = Chemical stability in phosphate buffer at pH 7.2 assessed as half life measured up to 12 hrs by HPLC analysis; type: physicochemical
[5] = Stability in simulated gastric fluid at pH 1.2 assessed as half life measured up to 12 hrs by HPLC analysis; type: ADME
[6] = Stability in simulated intestinal fluid at pH 6.8 assessed as half life measured up to 12 hrs by HPLC analysis; type: ADME
[7] = Metabolic stability in healthy C57BL/6 mouse jejunum assessed as half life measured up to 12 hrs by HPLC analysis; type: ADME, tissue-based
[8] = Metabolic stability in healthy C57BL/6 mouse colon assessed as half life measured up to 12 hrs by HPLC analysis; type: ADME, tissue-based
[9] = Metabolic stability in healthy C57BL/6 mouse colonic flora homogenate assessed as half life measured up to 12 hrs by HPLC analysis; type: ADME
[10] = Metabolic stability in healthy C57BL/6 mouse liver assessed as half life measured up to 12 hrs by HPLC analysis; type: ADME, tissue-based
[11] = Metabolic stability in healthy C57BL/6 mouse plasma assessed as half life measured up to 12 hrs by HPLC analysis; type: ADME, cell-free
[12] = Metabolic stability in DSS-induced C57BL/6 mouse jejunum assessed as half life measured up to 12 hrs by HPLC analysis; type: ADME, tissue-based
[13] = Metabolic stability in DSS-induced C57BL/6 mouse colon assessed as half life measured up to 12 hrs by HPLC analysis; type: ADME, tissue-based
[14] = Metabolic stability in DSS-induced C57BL/6 inflammatory mouse model colonic flora homogenate assessed as half life measured up to 12 hrs by HPLC analysis; type: ADME; settings: C57BL/6, mouse
[15] = Stability in human Caco-2 cells homogenate assessed as half life measured up to 12 hrs by HPLC analysis; type: ADME, cell-based; settings: Caco-2 cell homogenate
[16] = molecular target: T1, Solute carrier family 15 member 1 (Rattus norvegicus, UniProt P51574); assay: Substrate activity in PEPT1 in Sprague-Dawley rat jejunum assessed as fold increase in effective permeability at 5 mM measured up to 60 mins in presence of Gly-Sar by HPLC analysis relative to its enantiomers; type: ADME, tissue-based; settings: 1 h, 5000 µM
T1 sequence (P51574 whole entry): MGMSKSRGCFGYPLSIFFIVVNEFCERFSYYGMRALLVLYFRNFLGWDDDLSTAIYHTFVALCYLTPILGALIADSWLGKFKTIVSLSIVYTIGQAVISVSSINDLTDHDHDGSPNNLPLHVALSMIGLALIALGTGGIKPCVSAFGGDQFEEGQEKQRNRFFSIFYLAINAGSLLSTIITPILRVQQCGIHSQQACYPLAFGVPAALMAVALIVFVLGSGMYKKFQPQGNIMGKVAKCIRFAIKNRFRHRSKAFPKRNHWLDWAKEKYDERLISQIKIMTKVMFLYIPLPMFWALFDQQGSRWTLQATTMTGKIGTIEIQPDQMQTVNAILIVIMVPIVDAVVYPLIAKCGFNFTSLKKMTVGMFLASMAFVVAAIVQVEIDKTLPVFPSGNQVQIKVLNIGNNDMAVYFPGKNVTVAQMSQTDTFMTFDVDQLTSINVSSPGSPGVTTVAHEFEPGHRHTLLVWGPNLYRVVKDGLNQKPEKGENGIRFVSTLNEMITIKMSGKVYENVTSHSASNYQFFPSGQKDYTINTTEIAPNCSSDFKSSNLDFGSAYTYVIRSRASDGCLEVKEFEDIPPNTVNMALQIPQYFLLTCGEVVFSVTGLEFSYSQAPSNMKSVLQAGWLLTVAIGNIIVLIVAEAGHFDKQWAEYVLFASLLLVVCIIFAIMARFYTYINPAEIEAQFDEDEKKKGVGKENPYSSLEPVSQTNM

[17] = molecular target: T2, Solute carrier family 15 member 1 (Homo sapiens, UniProt P46059); assay: Substrate activity at PEPT1 in human Caco-2 cells assessed as inhibition of Gly-Sar substrate uptake by UPLC-MS/MS analysis; type: cell-based
T2 sequence (P46059 whole entry): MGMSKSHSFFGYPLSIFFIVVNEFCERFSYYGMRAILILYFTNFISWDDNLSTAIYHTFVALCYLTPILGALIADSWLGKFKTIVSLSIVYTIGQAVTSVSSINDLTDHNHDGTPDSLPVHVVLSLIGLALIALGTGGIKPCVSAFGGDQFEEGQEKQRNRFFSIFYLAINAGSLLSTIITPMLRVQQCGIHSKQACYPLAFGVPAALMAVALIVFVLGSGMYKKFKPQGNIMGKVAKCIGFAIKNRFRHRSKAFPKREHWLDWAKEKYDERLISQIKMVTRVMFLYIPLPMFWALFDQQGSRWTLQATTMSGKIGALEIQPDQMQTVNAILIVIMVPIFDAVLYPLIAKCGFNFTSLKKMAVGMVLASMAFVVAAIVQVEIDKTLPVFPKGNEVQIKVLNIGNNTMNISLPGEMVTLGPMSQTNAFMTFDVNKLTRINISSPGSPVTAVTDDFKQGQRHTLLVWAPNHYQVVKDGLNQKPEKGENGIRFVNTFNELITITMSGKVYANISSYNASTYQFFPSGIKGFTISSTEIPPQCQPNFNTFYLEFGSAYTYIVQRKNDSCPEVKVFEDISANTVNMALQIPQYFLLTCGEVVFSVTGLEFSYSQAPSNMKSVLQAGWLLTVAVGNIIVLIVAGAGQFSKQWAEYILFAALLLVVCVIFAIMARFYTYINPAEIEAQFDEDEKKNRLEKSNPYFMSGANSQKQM

[18] = molecular target: T2, Solute carrier family 15 member 1; assay: Substrate activity at PEPT1 in human Caco-2 cells assessed as fold increase in drug uptake by UPLC-MS/MS analysis relative to its enantiomers; type: ADME, cell-based
[19] = molecular target: T2, Solute carrier family 15 member 1; assay: Substrate activity at PEPT1 in human Caco-2 cells assessed as fold reduction in drug uptake in presence of Gly-Sar by UPLC-MS/MS analysis relative to its enantiomers; type: ADME, cell-based
[20] = AUC (0 to 6 hrs) in DSS-induced colitis C57BL/6 mouse model at 25 mg/kg, po measured up to 6 hrs by UPLC-MS/MS analysis; type: ADME, organism-based; parameters: route oral, dose 25 mg/kg, time <=6; settings: in vivo
[21] = Cmax in DSS-induced colitis C57BL/6 mouse model at 25 mg/kg, po measured up to 6 hrs by UPLC-MS/MS analysis; type: ADME, organism-based; parameters: route oral, dose 25 mg/kg, time <=6; settings: in vivo
[22] = Tmax in DSS-induced colitis C57BL/6 mouse model at 25 mg/kg, po measured up to 6 hrs by UPLC-MS/MS analysis; type: ADME, organism-based; settings: in vivo
[23] = tested on: Mus musculus; assay: Anti-colitis activity against DSS-induced colitis in C57BL/6 mouse model assessed as assessed as recovery of body weight at 25 mg/kg, po administered via gavage twice daily for 10 days; type: functional, organism-based; settings: time 10.0 day
[24] = tested on: Mus musculus; assay: Anti-colitis activity against DSS-induced colitis in C57BL/6 mouse model assessed as increase in colon length at 25 mg/kg, po administered via gavage twice daily for 10 days; type: functional, organism-based; settings: time 10.0 day
[25] = tested on: Mus musculus; assay: Anti-colitis activity against DSS-induced colitis in C57BL/6 mouse model assessed as fold decrease in disease activity index at 25 mg/kg, po administered via gavage twice daily for 10 days relative to control; type: functional; settings: time 10 day
[26] = Apparent permeability across apical to basolateral side in human Caco-2 cells assessed as fold increase in permeability at 0.5 mM measured up to 60 mins by UPLC-MS/MS analysis relative to its enantiomers; type: ADME, cell-based; settings: caco-2, 1 h, 500 µM
[27] = tested on: Jejunum; assay: Effective permeability in Sprague-Dawley rat jejunum assessed as fold increase in permeability at 5 mM measured up to 60 mins by HPLC analysis relative to its enantiomers; type: ADME, tissue-based; settings: 1 h, 5000 µM
[28] = tested on: Mus musculus; assay: Anti-colitis activity against DSS-induced C57BL/6 mouse model of colitis assessed as assessed as body weight recovery at 50 mg/kg, po administered via gavage DSS stimulation for 5 days followed by compound addition once daily for 10 days; type: functional, organism-based; settings: time 10.0 day
[29] = tested on: Mus musculus; assay: Anti-colitis activity against DSS-induced C57BL/6 mouse model of colitis assessed as increase in colon length at 50 mg/kg, po administered via gavage DSS stimulation for 5 days followed by compound addition once daily for 10 days; type: functional, organism-based; settings: time 10.0 day
[30] = tested on: Mus musculus; assay: Anti-colitis activity against DSS-induced colitis in C57BL/6 mouse model assessed as fold decrease in disease activity index at 50 mg/kg, po administered via gavage twice daily for 10 days relative to control; type: functional; settings: time 10 day
[31] = tested on: Mus musculus; assay: Anti-colitis activity against DSS-induced colitis in C57BL/6 mouse model assessed as body weight recovery at 50 mg/kg, po administered via gavage twice a day for 10 days; type: functional, organism-based; settings: time 10.0 day
[32] = tested on: Mus musculus; assay: Anti-colitis activity against DSS-induced colitis in C57BL/6 mouse model assessed as increase in colon length at 50 mg/kg, po administered via gavage twice a day for 10 days; type: functional, organism-based; settings: time 10.0 day
[33] = tested on: Mus musculus; assay: Anti-colitis activity against DSS-induced colitis in C57BL/6 mouse model assessed as reduction colonic damage at 50 mg/kg, po administered via gavage twice a day for 10 days; type: functional, organism-based; settings: time 10.0 day
[34] = tested on: Mus musculus; assay: Anti-colitis activity against DSS-induced C57BL/6 mouse model of colitis assessed as fold change in body weight recovery at 25 to 100 mg/kg, po administered via gavage twice a day for 10 days relative to SASP; type: functional; settings: dose 25-100 mg/kg; time 10 day
[35] = tested on: Mus musculus; assay: Anti-colitis activity against DSS-induced C57BL/6 mouse model of colitis assessed as fold change in colon length at 25 to 100 mg/kg, po administered via gavage twice a day for 10 days relative to SASP; type: functional; settings: dose 25-100 mg/kg; time 10 day
[36] = tested on: Mus musculus; assay: Anti-colitis activity against DSS-induced C57BL/6 mouse model of colitis assessed as fold change in disease activity index at 25 to 100 mg/kg, po administered via gavage twice a day for 10 days relative to SASP; type: functional; settings: dose 25-100 mg/kg; time 10 day
[37] = tested on: Mus musculus; assay: Anti-colitis activity against DSS-induced colitis in C57BL/6 mouse model assessed as decrease in MPO level in colon at 50 mg/kg, po administered via gavage twice a day for 10 days; type: functional; parameters: scale not given: the % may be the effect or the level left; settings: time 10 day
[38] = tested on: Mus musculus; assay: Antiinflammatory activity in DSS-induced C57BL/6 mouse model of colitis assessed as decrease in TNF-alpha level 25 to 100 mg/kg, po administered via gavage twice a day for 10 days; type: functional, organism-based; settings: dose 25-100 mg/kg, time 10.0 day
[39] = tested on: Mus musculus; assay: Antiinflammatory activity in DSS-induced C57BL/6 mouse model of colitis assessed as decrease in IL-1beta level 25 to 100 mg/kg, po administered via gavage twice a day for 10 days; type: functional, organism-based; settings: dose 25-100 mg/kg, time 10.0 day
[40] = tested on: Mus musculus; assay: Antiinflammatory activity in DSS-induced C57BL/6 mouse model of colitis assessed as decrease in […] level 25 to 100 mg/kg, po administered via gavage twice a day for 10 days; type: functional, organism-based; settings: dose 25-100 mg/kg, time 10.0 day
[41] = tested on: Mus musculus; assay: Antiinflammatory activity in DSS-induced C57BL/6 mouse model of colitis assessed as increase in IL-10 level 25 to 100 mg/kg, po administered via gavage twice a day for 10 days; type: functional, organism-based; settings: dose 25-100 mg/kg, time 10.0 day

Compound: O=C(N[C@H](CO)C(=O)O)[C@@H]1C[C@@H](O)CN1
- half-life [1]: > 12 h
- half-life [2]: > 12 h
- half-life [3]: > 12 h
- half-life [4]: > 12 h
- half-life [5]: > 12 h
- half-life [6]: > 12 h
- half-life [7]: 0.33 h
- half-life [8]: > 12 h
- half-life [9]: 0.91 h
- half-life [10]: 0.32 h
- half-life [11]: > 12 h
- half-life [12]: 0.39 h
- half-life [13]: > 12 h
- half-life [14]: 0.99 h
- half-life [15]: > 12 h
- fold change (FC) [16]: 4.6
- IC50 [17]: 10.2 mM
- fold change (FC) [18]: 3.3
- fold change (FC) [19]: 3.4
- AUC [20]: 1.67 microM/L.hr
- Cmax [21]: 640 nM
- Tmax [22]: 2 h
- Activity [23]: Active
- Activity [24]: Active
- fold change (FC) [25]: 1.5
- fold change (FC) [26]: 6.3
- fold change (FC) [27]: 7.3

Compound: O=C(O)c1cc(/N=N/c2ccc(S(=O)(=O)Nc3ccccn3)cc2)ccc1O [SULFASALAZINE]
- Activity [23]: Active
- Activity [24]: Active
- Activity [28]: Active
- Activity [29]: Active
- fold change (FC) [30]: 1.5
- Activity [31]: Active
- Activity [32]: Active
- Activity [33]: Active
- fold change (FC) [34]: 2.1
- fold change (FC) [35]: 1.2
- fold change (FC) [36]: 2.3
- Activity [37]: 27.3%
- Activity [38]: Active
- Activity [39]: Active
- Activity [40]: Active
- Activity [41]: Active
